# Test results as given in patent US9096500B2, “Acyl sulfonamide compounds” (Pfizer Limited, priority 2010, dated 2015).
# Biological target: T1, Nav1.7 (or SCN9A) channel (Homo sapiens, UniProt Q15858)
# T1 construct: expressed in transfected cells
# Assay: Nav1.7 (hSCN9A) electrophysiology assay, PatchXpress platform
# Format: cell-based
# Details: estimated IC50 from single point electrophysiology data, HEK cells stably expressing hSCN9A, held at V1/2 of inactivation, read-out: Nav1.7 EIC50
# Method in brief: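 HEK cells stably expressing hSCN9A were recorded by whole-cell voltage clamp, including on PatchXpress, at 22–24°C with extracellular solution at pH 7.4. A 20 msec step to 0 mV followed an 8 s conditioning prepulse to the empirically determined inactivation V1/2. Inhibition was taken from current amplitude before vs after compound.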
# T1 sequence (Q15858 whole entry): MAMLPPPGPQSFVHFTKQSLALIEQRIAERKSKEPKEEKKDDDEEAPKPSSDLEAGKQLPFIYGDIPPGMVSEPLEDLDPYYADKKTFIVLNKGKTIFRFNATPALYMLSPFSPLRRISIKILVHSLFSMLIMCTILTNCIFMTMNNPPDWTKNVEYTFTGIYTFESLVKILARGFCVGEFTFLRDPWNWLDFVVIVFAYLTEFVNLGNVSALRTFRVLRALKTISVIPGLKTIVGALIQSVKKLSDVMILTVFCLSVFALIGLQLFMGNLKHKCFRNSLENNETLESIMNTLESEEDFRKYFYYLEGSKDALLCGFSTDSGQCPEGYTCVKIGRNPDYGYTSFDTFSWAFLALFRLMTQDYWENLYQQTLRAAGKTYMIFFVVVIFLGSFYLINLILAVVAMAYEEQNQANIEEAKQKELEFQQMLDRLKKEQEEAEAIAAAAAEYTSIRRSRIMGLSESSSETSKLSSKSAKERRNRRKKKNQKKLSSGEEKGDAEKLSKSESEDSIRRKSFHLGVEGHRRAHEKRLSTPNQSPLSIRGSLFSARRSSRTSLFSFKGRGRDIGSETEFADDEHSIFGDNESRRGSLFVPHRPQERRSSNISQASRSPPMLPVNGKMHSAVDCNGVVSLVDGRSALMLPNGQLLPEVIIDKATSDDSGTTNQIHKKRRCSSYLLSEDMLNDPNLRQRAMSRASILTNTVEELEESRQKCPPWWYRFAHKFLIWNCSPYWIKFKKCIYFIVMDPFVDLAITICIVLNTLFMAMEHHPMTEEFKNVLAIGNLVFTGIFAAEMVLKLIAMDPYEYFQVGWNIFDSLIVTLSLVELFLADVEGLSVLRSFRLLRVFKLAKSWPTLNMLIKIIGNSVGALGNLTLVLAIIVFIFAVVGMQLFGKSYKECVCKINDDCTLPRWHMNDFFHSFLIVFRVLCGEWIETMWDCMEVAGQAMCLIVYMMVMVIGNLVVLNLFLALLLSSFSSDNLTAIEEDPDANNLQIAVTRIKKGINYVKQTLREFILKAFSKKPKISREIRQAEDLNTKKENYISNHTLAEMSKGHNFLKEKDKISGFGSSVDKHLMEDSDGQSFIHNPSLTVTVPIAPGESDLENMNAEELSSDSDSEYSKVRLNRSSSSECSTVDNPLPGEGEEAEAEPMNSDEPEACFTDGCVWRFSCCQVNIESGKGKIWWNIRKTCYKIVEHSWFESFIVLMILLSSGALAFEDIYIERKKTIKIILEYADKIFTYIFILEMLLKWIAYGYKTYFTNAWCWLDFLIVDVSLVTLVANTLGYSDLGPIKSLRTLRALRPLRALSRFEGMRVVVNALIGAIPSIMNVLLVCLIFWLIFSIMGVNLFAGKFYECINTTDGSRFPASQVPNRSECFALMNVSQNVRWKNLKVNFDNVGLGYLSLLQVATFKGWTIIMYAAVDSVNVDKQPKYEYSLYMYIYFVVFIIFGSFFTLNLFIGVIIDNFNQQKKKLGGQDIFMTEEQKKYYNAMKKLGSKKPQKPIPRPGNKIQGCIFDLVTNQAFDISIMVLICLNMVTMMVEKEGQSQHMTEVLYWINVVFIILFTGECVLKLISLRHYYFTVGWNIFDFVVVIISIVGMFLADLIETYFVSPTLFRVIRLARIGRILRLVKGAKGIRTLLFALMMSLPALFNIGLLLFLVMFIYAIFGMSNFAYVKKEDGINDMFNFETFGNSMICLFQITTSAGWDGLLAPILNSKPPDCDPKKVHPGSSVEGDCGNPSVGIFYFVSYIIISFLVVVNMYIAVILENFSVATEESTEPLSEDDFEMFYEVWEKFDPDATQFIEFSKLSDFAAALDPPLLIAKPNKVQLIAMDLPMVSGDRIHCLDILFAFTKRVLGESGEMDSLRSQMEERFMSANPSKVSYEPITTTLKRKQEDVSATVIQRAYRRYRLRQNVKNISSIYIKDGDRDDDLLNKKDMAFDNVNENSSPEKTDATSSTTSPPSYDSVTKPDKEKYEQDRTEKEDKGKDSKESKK
row,IC50,Structure (SMILES)
1,820 nM,"CS(=O)(=O)NC(=O)c1cc(F)c(COc2ccc3cc(C#N)ccc3c2)cc1F [Example 99, 4-{[(6-cyano-2-naphthyl)oxy]methyl}-2,5-difluoro-N-(methylsulfonyl)benzamide]"
2,390 nM,"Cc1ccc(Cl)cc1OCc1cc(F)c(C(=O)NS(C)(=O)=O)cc1F [Example 100, 4-[(5-chloro-2-methylphenoxy)methyl]-2,5-difluoro-N-(methylsulfonyl)benzamide]"
3,1900 nM,"CS(=O)(=O)NC(=O)c1cc(F)c(COc2ccc(C#N)c(C(F)(F)F)c2)cc1F [Example 101, 4-{[4-cyano-3-(trifluoromethyl)phenoxy]methyl}-2,5-difluoro-N-(methylsulfonyl)benzamide]"
4,> 3000 nM,"Cc1c(OCc2cc(F)c(C(=O)NS(C)(=O)=O)cc2F)cccc1-n1cccn1 [Example 102, 2,5-difluoro-4-{[2-methyl-3-(1H-pyrazol-1-yl)phenoxy]methyl}-N-(methylsulfonyl)benzamide]"
5,6100 nM,"CS(=O)(=O)NC(=O)c1cc(F)c(COc2ccc(C#N)c(C#N)c2)cc1F [Example 103, 4-[(3,4-dicyanophenoxy)methyl]-2,5-difluoro-N-(methylsulfonyl)benzamide]"
6,5100 nM,"CS(=O)(=O)NC(=O)c1cc(F)c(COc2ccc(C#N)cc2F)cc1F [Example 104, 4-[(4-cyano-2-fluorophenoxy)methyl]-2,5-difluoro-N-(methylsulfonyl)benzamide]"
7,100 nM,"Cc1cc(Cl)cc(OCc2cc(F)c(C(=O)NS(C)(=O)=O)cc2F)c1 [Example 105, 4-[(3-chloro-5-methylphenoxy)methyl]-2,5-difluoro-N-(methylsulfonyl)benzamide]"
8,9200 nM,"CN1CCC(c2cccc(OCc3cc(F)c(C(=O)NS(C)(=O)=O)cc3F)c2)CC1 [Example 106, 2,5-difluoro-4-{[3-(1-methylpiperidin-4-yl)phenoxy]methyl}-N-(methylsulfonyl)benzamide]"
9,330 nM,"CC(C)c1cccc(OCc2cc(F)c(C(=O)NS(C)(=O)=O)cc2F)c1 [Example 107, 2,5-difluoro-4-[(3-isopropylphenoxy)methyl]-N-(methylsulfonyl)benzamide]"
10,87 nM,"CS(=O)(=O)NC(=O)c1cc(F)c(COc2cc(F)cc(C(F)(F)F)c2)cc1F [Example 108, 2,5-difluoro-4-{[3-fluoro-5-(trifluoromethyl)phenoxy]methyl}-N-(methylsulfonyl)benzamide]"
11,140 nM,"CS(=O)(=O)NC(=O)c1cc(F)c(COc2cccc(C(F)(F)F)c2)cc1F [Example 109, 2,5-difluoro-N-(methylsulfonyl)-4-{[3-(trifluoromethyl)phenoxy]methyl}benzamide]"
12,2200 nM,"CS(=O)(=O)NC(=O)c1cc(F)c(COc2ccccc2F)cc1F [Example 110, 2,5-difluoro-4-[(2-fluorophenoxy)methyl]-N-(methylsulfonyl)benzamide]"
13,> 1000 nM,"CS(=O)(=O)NC(=O)c1cc(F)c(COc2cccc(F)c2F)cc1F [Example 111, 4-[(2,3-difluorophenoxy)methyl]-2,5-difluoro-N-(methylsulfonyl)benzamide]"
14,1400 nM,"CCc1ccccc1OCc1cc(F)c(C(=O)NS(C)(=O)=O)cc1F [Example 112, 4-[(2-ethylphenoxy)methyl]-2,5-difluoro-N-(methylsulfonyl)benzamide]"
15,11000 nM,"CN1CCN(c2cccc(OCc3cc(F)c(C(=O)NS(C)(=O)=O)cc3F)c2)CC1 [Example 113, 2,5-difluoro-4-{[3-(4-methylpiperazin-1-yl)phenoxy]methyl}-N-(methylsulfonyl)benzamide]"
16,620 nM,"Cc1ccc(OCc2cc(F)c(C(=O)NS(C)(=O)=O)cc2F)cc1 [Example 115, 2,5-difluoro-4-[(4-methylphenoxy)methyl]-N-(methylsulfonyl)benzamide]"
17,570 nM,"CS(=O)(=O)NC(=O)c1cc(F)c(COc2cccc(F)c2)cc1F [Example 116, 2,5-difluoro-4-[(3-fluorophenoxy)methyl]-N-(methylsulfonyl)benzamide]"
18,2200 nM,"CS(=O)(=O)NC(=O)c1cc(F)c(COc2ccccc2OC(F)(F)F)cc1F [Example 117, 2,5-difluoro-N-(methylsulfonyl)-4-{[2-(trifluoromethoxy)phenoxy]methyl}benzamide]"
19,> 1000 nM,"CS(=O)(=O)NC(=O)c1cc(F)c(COc2cc(F)cc(F)c2)cc1F [Example 118, 4-[(3,5-difluorophenoxy)methyl]-2,5-difluoro-N-(methylsulfonyl)benzamide]"
20,380 nM,"Cc1cc(C)cc(OCc2cc(F)c(C(=O)NS(C)(=O)=O)cc2F)c1 [Example 119, 4-[(3,5-dimethylphenoxy)methyl]-2,5-difluoro-N-(methylsulfonyl)benzamide]"
21,700 nM,"Cc1ccc(OCc2cc(F)c(C(=O)NS(C)(=O)=O)cc2F)cc1C [Example 120, 4-[(3,4-dimethylphenoxy)methyl]-2,5-difluoro-N-(methylsulfonyl)benzamide]"

row,IC50,Structure (SMILES)
1,2200 nM,"COc1ccc(Cl)c(OCc2cc(F)c(C(=O)NS(C)(=O)=O)cc2F)c1 [Example 122, 4-[(2-chloro-5-methoxyphenoxy)methyl]-2,5-difluoro-N-(methylsulfonyl)benzamide]"
2,850 nM,"CS(=O)(=O)NC(=O)c1cc(F)c(COc2cc(C(F)(F)F)ccc2F)cc1F [Example 123, 2,5-difluoro-4-{[2-fluoro-5-(trifluoromethyl)phenoxy]methyl}-N-(methylsulfonyl)benzamide]"
3,180 nM,"CS(=O)(=O)NC(=O)c1cc(F)c(COc2cc(F)cc(Cl)c2)cc1F [Example 124, 4-[(3-chloro-5-fluorophenoxy)methyl]-2,5-difluoro-N-(methylsulfonyl)benzamide]"
4,1400 nM,"CS(=O)(=O)NC(=O)c1cc(F)c(COc2ccc(F)c(C#N)c2)cc1F [Example 125, 4-[(3-cyano-4-fluorophenoxy)methyl]-2,5-difluoro-N-(methylsulfonyl)benzamide]"
5,> 3000 nM,"CS(=O)(=O)NC(=O)c1cc(F)c(COc2c(F)cccc2F)cc1F [Example 126, 4-[(2,6-difluorophenoxy)methyl]-2,5-difluoro-N-(methylsulfonyl)benzamide]"
6,2600 nM,"CS(=O)(=O)NC(=O)c1cc(F)c(COc2ccc(C#N)c(F)c2)cc1F [Example 127, 4-[(4-cyano-3-fluorophenoxy)methyl]-2,5-difluoro-N-(methylsulfonyl)benzamide]"
7,2900 nM,"COc1cc(F)cc(OCc2cc(F)c(C(=O)NS(C)(=O)=O)cc2F)c1 [Example 128, 2,5-difluoro-4-[(3-fluoro-5-methoxyphenoxy)methyl]-N-(methylsulfonyl)benzamide]"
8,1900 nM,"CS(=O)(=O)NC(=O)c1cc(F)c(COc2ccc(F)c(F)c2Cl)cc1F [Example 129, 4-[(2-chloro-3,4-difluorophenoxy)methyl]-2,5-difluoro-N-(methylsulfonyl)benzamide]"
9,240 nM,"CS(=O)(=O)NC(=O)c1cc(F)c(COc2ccc3ccccc3c2)cc1F [Example 130, 2,5-difluoro-N-(methylsulfonyl)-4-[(2-naphthyloxy)methyl]benzamide]"
10,> 1000 nM,"Cc1cc(Cl)c(OCc2cc(F)c(C(=O)NS(C)(=O)=O)cc2F)cc1C#N [Example 131, 4-[(2-chloro-5-cyano-4-methylphenoxy)methyl]-2,5-difluoro-N-(methylsulfonyl)benzamide]"
11,> 3000 nM,"COc1cc(C#N)ccc1OCc1cc(F)c(C(=O)NS(C)(=O)=O)cc1F [Example 132, 4-[(4-cyano-2-methoxyphenoxy)methyl]-2,5-difluoro-N-(methylsulfonyl)benzamide]"
12,> 1000 nM,"CS(=O)(=O)NC(=O)c1cc(F)c(COc2ccc(Cl)cc2F)cc1F [Example 133, 4-[(4-chloro-2-fluorophenoxy)methyl]-2,5-difluoro-N-(methylsulfonyl)benzamide]"
13,470 nM,"CS(=O)(=O)NC(=O)c1cc(F)c(COc2cc(Cl)ccc2Cl)cc1F [Example 134, 4-[(2,5-dichlorophenoxy)methyl]-2,5-difluoro-N-(methylsulfonyl)benzamide]"
14,> 3000 nM,"CS(=O)(=O)NC(=O)c1cc(F)c(COc2ccc(Cl)cc2C#N)cc1F [Example 135, 4-[(4-chloro-2-cyanophenoxy)methyl]-2,5-difluoro-N-(methylsulfonyl)benzamide]"
15,> 3000 nM,"CS(=O)(=O)NC(=O)c1cc(F)c(COc2cccc(N3CCOCC3)c2)cc1F [Example 136, 2,5-difluoro-N-(methylsulfonyl)-4-[(3-morpholin-4-ylphenoxy)methyl]benzamide]"
16,> 3000 nM,"CS(=O)(=O)NC(=O)c1cc(F)c(COc2ccccc2C#N)cc1F [Example 137, 4-[(2-cyanophenoxy)methyl]-2,5-difluoro-N-(methylsulfonyl)benzamide]"
17,4200 nM,"CS(=O)(=O)NC(=O)c1cc(F)c(COc2ccc(-c3cocn3)cc2)cc1F [Example 138, 2,5-difluoro-N-(methylsulfonyl)-4-{[4-(1,3-oxazol-4-yl)phenoxy]methyl}benzamide]"
18,> 3000 nM,"COc1cc(OCc2cc(F)c(C(=O)NS(C)(=O)=O)cc2F)ccc1-n1cccn1 [Example 139, 2,5-difluoro-4-{[3-methoxy-4-(1H-pyrazol-1-yl)phenoxy]methyl}-N-(methylsulfonyl)benzamide]"
19,2200 nM,"CS(=O)(=O)NC(=O)c1cc(F)c(COc2c(F)ccc(F)c2F)cc1F [Example 140, 2,5-difluoro-N-(methylsulfonyl)-4-[(2,3,6-trifluorophenoxy)methyl]benzamide]"
20,330 nM,"CS(=O)(=O)NC(=O)c1cc(F)c(COc2ccc(C(F)(F)F)cc2)cc1F [Example 141, 2,5-difluoro-N-(methylsulfonyl)-4-{[4-(trifluoromethyl)phenoxy]methyl}benzamide]"
21,600 nM,"CS(=O)(=O)NC(=O)c1cc(F)c(COc2ccc(F)c(C(F)(F)F)c2)cc1F [Example 142, 2,5-difluoro-4-{[4-fluoro-3-(trifluoromethyl)phenoxy]methyl}-N-(methylsulfonyl)benzamide]"
